# Values of other authors, collected in patent EP4197526A1, “HYDROGEL FORMULATION COMPRISING ZEBULARINE AND RETIONIC ACID” (Uniwersytet Gdanski, priority 2021, dated 2023).
# Where “and” joins values, the source holds several entries; their conditions need not be identical. Equal values may be shown once.
# Conditions: literature data
row,Structure (SMILES),solubility in water
1,CC1=C(/C=C/C(C)=C/C=C/C(C)=C/C(=O)O)C(C)(C)CCC1 [retinoic acid],0.000063 mg/ml and 0.21 microM
2,O=c1ncccn1[C@@H]1O[C@H](CO)[C@@H](O)[C@H]1O [zebularine],up to 50 mg/ml
